Results as given in patent US11981658B2, “Substituted aminopyridine compounds as EGFR inhibitors” (YUHAN CORPORATION, priority 2021, dated 2024).
Where two headings read alike, the source gives them in different places.

Experiments:
EGFR wildtype (WT) = EGFR wildtype (WT) (Homo sapiens, UniProt P00533); test: Biochemical EGFR kinase inhibition assay (Lance Ultra TR-FRET), wildtype
How it was run: (§1)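 Enzyme reactions lasted 1 hour at room temperature with test compounds between 0.003 and 10 μM, followed by 10 mM EDTA quench.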

EGFR Del19/T790M/C797S = EGFR Del19/T790M/C797S (Homo sapiens, UniProt P00533, C797S/DEL746-750/T790M); test: Biochemical EGFR kinase inhibition assay (Lance Ultra TR-FRET), triple mutant del19/T790M/C797S
How it was run: as §1

EGFR L858R/T790M/C797S = EGFR L858R/T790M/C797S (Homo sapiens, UniProt P00533, C797S/L858R/T790M); test: Biochemical EGFR kinase inhibition assay (Lance Ultra TR-FRET), triple mutant L858R/T790M/C797S
How it was run: as §1

EGFR L858R/C797S = EGFR L858R/C797S (Homo sapiens, UniProt P00533, C797S/L858R); test: Biochemical EGFR kinase inhibition assay (Lance Ultra TR-FRET), double mutant L858R/C797S
How it was run: as §1

EGFR Del19/C797S = EGFR Del19/C797S (Homo sapiens, UniProt P00533, C797S/DEL746-750); test: Biochemical EGFR kinase inhibition assay (Lance Ultra TR-FRET), double mutant del19/C797S
How it was run: as §1

[1] = Km ATP, read-out: IC50 WT (nM), Km ATP
[2] = IC50 Del19/T790M/C797S (nM), 100 μM ATP
[3] = Km ATP, read-out: IC50 Del19/T790M/C797S (nM), Km ATP
[4] = IC50 L858R/T790M/C797S (nM), 100 μM ATP
[5] = Km ATP, read-out: IC50 L858R/T790M/C797S (nM), Km ATP
[6] = IC50 L858R/C797S (nM), 100 μM ATP
[7] = Km ATP, read-out: IC50 L858R/C797S (nM), Km ATP
[8] = IC50 Del19/C797S (nM), 100 μM ATP
[9] = Km ATP, read-out: IC50 Del19/C797S (nM), Km ATP

EGFR L858R/T790M/C797S, sequence (P00533 25-1210 T790M/C797S/L858R): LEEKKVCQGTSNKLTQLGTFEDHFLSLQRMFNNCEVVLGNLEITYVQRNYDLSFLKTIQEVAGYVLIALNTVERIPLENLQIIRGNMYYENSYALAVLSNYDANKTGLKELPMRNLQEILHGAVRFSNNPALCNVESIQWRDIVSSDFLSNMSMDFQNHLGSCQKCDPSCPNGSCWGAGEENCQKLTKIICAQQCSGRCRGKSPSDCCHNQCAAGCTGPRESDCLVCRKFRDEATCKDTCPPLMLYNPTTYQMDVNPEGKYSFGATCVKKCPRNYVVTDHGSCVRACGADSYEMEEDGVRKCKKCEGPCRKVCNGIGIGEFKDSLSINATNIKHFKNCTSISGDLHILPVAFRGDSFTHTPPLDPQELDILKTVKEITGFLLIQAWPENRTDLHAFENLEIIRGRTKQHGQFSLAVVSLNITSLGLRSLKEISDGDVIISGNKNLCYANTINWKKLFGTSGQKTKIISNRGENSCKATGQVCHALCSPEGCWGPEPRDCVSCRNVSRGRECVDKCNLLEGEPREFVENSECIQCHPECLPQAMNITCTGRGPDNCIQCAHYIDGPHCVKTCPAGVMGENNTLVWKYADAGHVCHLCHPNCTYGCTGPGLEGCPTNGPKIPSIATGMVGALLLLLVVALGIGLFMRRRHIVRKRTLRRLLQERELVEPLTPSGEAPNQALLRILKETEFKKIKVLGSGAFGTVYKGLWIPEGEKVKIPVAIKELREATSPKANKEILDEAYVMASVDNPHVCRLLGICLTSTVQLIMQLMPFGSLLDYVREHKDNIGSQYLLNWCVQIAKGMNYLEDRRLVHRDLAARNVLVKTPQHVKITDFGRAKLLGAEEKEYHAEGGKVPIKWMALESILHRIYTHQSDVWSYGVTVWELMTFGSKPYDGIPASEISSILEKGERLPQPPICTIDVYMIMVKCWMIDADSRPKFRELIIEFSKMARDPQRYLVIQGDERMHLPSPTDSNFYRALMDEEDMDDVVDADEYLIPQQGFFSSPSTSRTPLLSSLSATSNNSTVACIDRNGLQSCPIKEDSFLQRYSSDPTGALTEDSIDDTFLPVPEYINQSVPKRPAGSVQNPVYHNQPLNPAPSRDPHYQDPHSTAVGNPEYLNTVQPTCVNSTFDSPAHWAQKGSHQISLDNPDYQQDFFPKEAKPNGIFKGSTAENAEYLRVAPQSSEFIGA
EGFR L858R/C797S, sequence (P00533 25-1210 C797S/L858R): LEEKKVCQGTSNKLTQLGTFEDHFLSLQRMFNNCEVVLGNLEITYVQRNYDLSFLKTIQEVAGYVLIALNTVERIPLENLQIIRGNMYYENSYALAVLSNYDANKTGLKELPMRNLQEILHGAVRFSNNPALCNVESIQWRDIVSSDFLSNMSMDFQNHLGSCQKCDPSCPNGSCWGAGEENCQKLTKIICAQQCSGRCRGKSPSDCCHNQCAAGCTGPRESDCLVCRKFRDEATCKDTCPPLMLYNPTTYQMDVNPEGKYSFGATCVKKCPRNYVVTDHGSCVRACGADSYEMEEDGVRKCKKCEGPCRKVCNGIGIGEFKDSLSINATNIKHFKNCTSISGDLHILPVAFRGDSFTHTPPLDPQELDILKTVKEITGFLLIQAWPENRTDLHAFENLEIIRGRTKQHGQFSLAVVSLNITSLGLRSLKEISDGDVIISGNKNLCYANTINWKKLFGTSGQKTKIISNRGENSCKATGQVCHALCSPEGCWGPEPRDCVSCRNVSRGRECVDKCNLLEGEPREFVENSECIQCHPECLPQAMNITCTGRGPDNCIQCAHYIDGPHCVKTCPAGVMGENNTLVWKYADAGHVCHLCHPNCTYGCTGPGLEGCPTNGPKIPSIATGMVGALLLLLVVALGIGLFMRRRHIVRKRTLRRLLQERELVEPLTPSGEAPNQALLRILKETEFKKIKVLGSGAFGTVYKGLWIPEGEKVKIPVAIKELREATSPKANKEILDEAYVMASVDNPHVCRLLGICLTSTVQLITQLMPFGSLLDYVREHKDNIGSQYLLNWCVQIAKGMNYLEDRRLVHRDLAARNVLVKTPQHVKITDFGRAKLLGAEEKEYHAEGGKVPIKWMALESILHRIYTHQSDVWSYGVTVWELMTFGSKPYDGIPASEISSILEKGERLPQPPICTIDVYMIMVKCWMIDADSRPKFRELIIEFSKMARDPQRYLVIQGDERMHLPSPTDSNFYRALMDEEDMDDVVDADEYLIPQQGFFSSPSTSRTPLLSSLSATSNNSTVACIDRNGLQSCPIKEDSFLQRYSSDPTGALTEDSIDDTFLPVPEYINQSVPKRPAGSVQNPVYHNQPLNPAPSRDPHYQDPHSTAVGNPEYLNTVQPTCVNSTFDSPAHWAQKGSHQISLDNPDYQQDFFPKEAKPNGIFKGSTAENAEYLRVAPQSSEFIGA
EGFR wildtype (WT), sequence (P00533 25-1210): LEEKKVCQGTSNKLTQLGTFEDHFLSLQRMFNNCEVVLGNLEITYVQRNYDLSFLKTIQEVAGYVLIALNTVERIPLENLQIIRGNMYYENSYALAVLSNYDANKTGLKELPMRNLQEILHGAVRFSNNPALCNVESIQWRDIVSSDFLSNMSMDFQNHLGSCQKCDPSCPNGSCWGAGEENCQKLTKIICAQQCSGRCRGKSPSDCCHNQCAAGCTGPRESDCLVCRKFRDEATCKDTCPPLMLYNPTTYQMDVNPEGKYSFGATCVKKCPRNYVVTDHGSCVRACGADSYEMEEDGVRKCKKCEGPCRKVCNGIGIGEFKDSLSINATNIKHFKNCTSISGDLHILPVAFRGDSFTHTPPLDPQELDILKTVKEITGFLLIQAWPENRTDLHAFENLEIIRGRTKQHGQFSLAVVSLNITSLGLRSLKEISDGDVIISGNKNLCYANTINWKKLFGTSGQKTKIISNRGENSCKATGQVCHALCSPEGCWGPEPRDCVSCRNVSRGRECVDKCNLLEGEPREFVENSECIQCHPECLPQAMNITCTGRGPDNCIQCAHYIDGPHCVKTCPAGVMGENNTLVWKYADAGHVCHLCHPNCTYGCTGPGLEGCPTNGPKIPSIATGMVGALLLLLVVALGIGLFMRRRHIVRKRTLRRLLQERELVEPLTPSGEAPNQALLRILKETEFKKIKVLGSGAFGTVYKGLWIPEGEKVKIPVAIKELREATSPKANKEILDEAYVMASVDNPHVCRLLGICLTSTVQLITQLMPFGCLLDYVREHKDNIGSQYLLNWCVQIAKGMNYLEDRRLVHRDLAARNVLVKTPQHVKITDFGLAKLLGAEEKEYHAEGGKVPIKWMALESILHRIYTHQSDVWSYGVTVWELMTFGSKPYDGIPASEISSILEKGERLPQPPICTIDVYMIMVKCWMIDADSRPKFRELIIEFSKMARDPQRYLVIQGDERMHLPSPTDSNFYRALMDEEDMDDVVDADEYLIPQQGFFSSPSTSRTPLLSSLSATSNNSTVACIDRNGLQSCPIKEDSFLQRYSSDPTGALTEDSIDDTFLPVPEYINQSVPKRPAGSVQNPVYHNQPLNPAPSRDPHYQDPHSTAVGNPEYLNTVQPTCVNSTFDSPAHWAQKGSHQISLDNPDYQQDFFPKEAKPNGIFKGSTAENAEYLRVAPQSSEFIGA
EGFR Del19/T790M/C797S, sequence (P00533 with tags, fused parts or gaps DEL746-750/T790M/C797S): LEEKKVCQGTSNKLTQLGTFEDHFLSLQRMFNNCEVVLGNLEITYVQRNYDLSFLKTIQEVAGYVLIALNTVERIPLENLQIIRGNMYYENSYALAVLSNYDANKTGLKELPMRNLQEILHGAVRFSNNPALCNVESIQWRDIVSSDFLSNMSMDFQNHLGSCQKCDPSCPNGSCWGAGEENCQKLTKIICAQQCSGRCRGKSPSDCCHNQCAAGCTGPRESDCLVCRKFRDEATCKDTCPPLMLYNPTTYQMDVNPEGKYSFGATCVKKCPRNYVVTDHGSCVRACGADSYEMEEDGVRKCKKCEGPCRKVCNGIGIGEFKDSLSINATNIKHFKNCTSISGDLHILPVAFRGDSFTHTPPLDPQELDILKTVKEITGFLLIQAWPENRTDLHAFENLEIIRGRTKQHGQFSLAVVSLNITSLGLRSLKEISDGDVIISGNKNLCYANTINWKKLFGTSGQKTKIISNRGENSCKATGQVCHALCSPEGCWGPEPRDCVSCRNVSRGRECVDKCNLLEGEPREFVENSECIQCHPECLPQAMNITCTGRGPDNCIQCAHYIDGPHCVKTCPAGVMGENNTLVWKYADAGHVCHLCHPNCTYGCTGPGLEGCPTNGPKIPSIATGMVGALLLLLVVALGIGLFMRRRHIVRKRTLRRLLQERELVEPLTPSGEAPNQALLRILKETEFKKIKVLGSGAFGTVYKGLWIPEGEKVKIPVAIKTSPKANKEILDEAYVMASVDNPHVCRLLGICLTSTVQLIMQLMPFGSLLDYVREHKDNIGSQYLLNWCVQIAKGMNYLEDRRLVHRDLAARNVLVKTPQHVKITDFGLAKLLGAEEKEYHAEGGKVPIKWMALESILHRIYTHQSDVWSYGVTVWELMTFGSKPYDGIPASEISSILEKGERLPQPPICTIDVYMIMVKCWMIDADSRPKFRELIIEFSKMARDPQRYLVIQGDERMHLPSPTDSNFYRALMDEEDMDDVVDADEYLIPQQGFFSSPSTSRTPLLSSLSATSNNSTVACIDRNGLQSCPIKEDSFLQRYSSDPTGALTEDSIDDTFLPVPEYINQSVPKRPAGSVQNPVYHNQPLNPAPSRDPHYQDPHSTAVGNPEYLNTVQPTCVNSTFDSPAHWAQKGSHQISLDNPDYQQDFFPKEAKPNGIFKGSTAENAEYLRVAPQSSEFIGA

Row | IC50 (EGFR wildtype (WT); IC50 WT (nM), 100 μM ATP) [nM] | IC50 (EGFR wildtype (WT); [1]) [nM] | IC50 (EGFR Del19/T790M/C797S; [2]) [nM] | IC50 (EGFR Del19/T790M/C797S; [3]) [nM] | IC50 (EGFR L858R/T790M/C797S; [4]) [nM] | IC50 (EGFR L858R/T790M/C797S; [5]) [nM] | IC50 (EGFR L858R/C797S; [6]) [nM] | IC50 (EGFR L858R/C797S; [7]) [nM] | IC50 (EGFR Del19/C797S; [8]) [nM] | IC50 (EGFR Del19/C797S; [9]) [nM] | SMILES
1 | > 10000 | 31 | 1 | 1.1 | 1.5 | 0.4 | 97.5 | 7.1 | 4.8 | 3.9 | CN(C)CCC1CCN(c2cc(Nc3ccnc(-c4cnn(S(=O)(=O)C5CC5)c4)n3)ncc2C#CC2CCO[C@H]2C(F)(F)F)CC1 (stereo partly drawn) [Example 419, 2-(1-(Cyclopropylsulfonyl)-1H-pyrazol-4-yl)-N-(4-(4-(2-(dimethylamino)ethyl)piperidin-1-yl)-5-(((2R)-2-(trifluoromethyl)tetrahydrofuran-3-yl)ethynyl)pyridin-2-yl)pyrimidin-4-amine]
2 | > 10000 | 52.7 | 1.3 | 1.6 | 2.3 | 0.5 | 119 | 12.6 | 6.9 | 6.4 | O=S(=O)(C1CC1)n1cc(-c2nccc(Nc3cc(NC4CCC(O)CC4)c(C#CC4CCOC4C(F)(F)F)cn3)n2)cn1 [Example 420, (1s,4s)-4-((2-((2-(1-(Cyclopropylsulfonyl)-1H-pyrazol-4-yl)pyrimidin-4-yl)amino)-5-(((2R)-2-(trifluoromethyl)tetrahydrofuran-3-yl)ethynyl)pyridin-4-yl)amino)cyclohexan-1-ol]
3 | > 10000 | 35.1 | 1.8 | 1.5 | 2.3 | 0.8 | 117 | 17.2 | 5.8 | 4 | CC1(CO)CCN(c2cc(Nc3ccnc(-c4cnn(S(=O)(=O)C5CC5)c4)n3)ncc2C#CC2CCO[C@H]2C(F)(F)F)CC1 (stereo partly drawn) [Example 421, (1-(2-((2-(1-(Cyclopropylsulfonyl)-1H-pyrazol-4-yl)pyrimidin-4-yl)amino)-5-(((2R)-2-(trifluoromethyl)tetrahydrofuran-3-yl)ethynyl)pyridin-4-yl)-4-methylpiperidin-4-yl)methanol]
4 | 6510 | 10.5 | 0.4 | 0.9 | 0.5 | 0.4 | 59.4 | 3.2 | 2.6 | 2.6 | O=S(=O)(C1CC1)n1cc(-c2nccc(Nc3cc(N[C@H]4CC[C@@H](CO)CC4)c(C#CC4C[C@@H]5CC[C@@H]4O5)cn3)n2)cn1 (stereo partly shown) [Example 422, ((1s,4s)-4-((5-((7-Oxabicyclo[2.2.1]heptan-2-yl)ethynyl)-2-((2-(1-(cyclopropylsulfonyl)-1H-pyrazol-4-yl)pyrimidin-4-yl)amino)pyridin-4-yl)amino)cyclohexyl)methanol]
5 | > 10000 |  | 1.2 |  | 3.2 |  | 1770 |  | 105 |  | O=S(=O)(C1CC1)n1cc(-c2nccc(Nc3cc(NC[C@H]4CC[C@H](O)CC4)c(C#CC4CC5CCC4O5)cn3)n2)cn1 (stereo partly shown) [Example 423, (1r,4r)-4-(((5-((7-Oxabicyclo[2.2.1]heptan-2-yl)ethynyl)-2-((2-(1-(cyclopropylsulfonyl)-1H-pyrazol-4-yl)pyrimidin-4-yl)amino)pyridin-4-yl)amino)methyl)cyclohexan-1-ol]
6 | 5450 | 8.8 | 0.2 | 0.3 | 0.3 | 0.2 | 47.7 | 1.9 | 2.4 | 2 | CC1(O)CCN(c2cc(Nc3ccnc(-c4cnn(S(=O)(=O)C5CC5)c4)n3)ncc2C#CC2CC3CCC2O3)CC1 (stereo not shown) [Example 424, 1-(5-((7-Oxabicyclo[2.2.1]heptan-2-yl)ethynyl)-2-((2-(1-(cyclopropylsulfonyl)-1H-pyrazol-4-yl)pyrimidin-4-yl)amino)pyridin-4-yl)-4-methylpiperidin-4-o 1]
7 | > 10000 |  | 2.5 |  | 5.4 |  | 1820 |  | 120 |  | O=S(=O)(C1CC1)n1cc(-c2nccc(Nc3cc(NC[C@H]4CC[C@H](CO)CC4)c(C#CC4CC5CCC4O5)cn3)n2)cn1 (stereo partly shown) [Example 425, ((1r,4r)-4-(((5-((7-Oxabicyclo[2.2.1]heptan-2-yl)ethynyl)-2-((2-(1-(cyclopropylsulfonyl)-1H-pyrazol-4-yl)pyrimidin-4-yl)amino)pyridin-4-yl)amino)methyl)cyclohexyl)methanol]
8 | > 10000 | 12 | 0.2 | 0.3 | 0.3 | 0.2 | 80.1 | 3.2 | 2.4 | 2.7 | O=S(=O)(C1CC1)n1cc(-c2nccc(Nc3cc(N[C@H]4CC[C@@H](O)CC4)c(C#CC4C[C@@H]5CC[C@@H]4O5)cn3)n2)cn1 (stereo partly shown) [Example 427, (1s,4s)-4-((5-((7-Oxabicyclo[2.2.1]heptan-2-yl)ethynyl)-2-((2-(1-(cyclopropylsulfonyl)-1H-pyrazol-4-yl)pyrimidin-4-yl)amino)pyridin-4-yl)amino)cyclohexan-1-ol]
9 | > 10000 | 18.6 | 0.5 | 0.1 | 0.2 | 0.1 | 28.5 | 4.9 | 1.9 | 4 | O=S1(=O)CCC(C#Cc2cnc(Nc3ccnc(-c4cnn(S(=O)(=O)C5CC5)c4)n3)cc2NC2CCC(CO)CC2)C1 (stereo not shown) [Example 428, 3-((6-((2-(1-(Cyclopropylsulfonyl)-1H-pyrazol-4-yl)pyrimidin-4-yl)amino)-4-(((1s,4s)-4-(hydroxymethyl)cyclohexyl)amino)pyridin-3-yl)ethynyl)tetrahydrothiophene 1,1-dioxide]
10 | 6020 | 38.9 | 0.5 | 0.2 | 0.3 | 0.2 | 39.7 | 4.8 | 3.4 | 4.9 | CC1(O)CCN(c2cc(Nc3ccnc(-c4cnn(S(=O)(=O)C5CC5)c4)n3)ncc2C#CC2CCS(=O)(=O)C2)CC1 (stereo not shown) [Example 429, 3-((6-((2-(1-(Cyclopropylsulfonyl)-1H-pyrazol-4-yl)pyrimidin-4-yl)amino)-4-(4-hydroxy-4-methylpiperidin-1-yl)pyridin-3-yl)ethynyl)tetrahydrothiophene 1,1-dioxide]
11 | 7480 | 6.9 | 1 | 0.6 | 0.9 | 0.3 | 107 | 4.3 | 3.8 | 1.3 | CC1OCCC1C#Cc1cnc(Nc2ccnc(-c3cnn(S(=O)(=O)C4CC4)c3)n2)cc1NC1CCC(CO)CC1 (stereo not shown) [Example 430, ((1s,4s)-4-((2-((2-(1-(Cyclopropylsulfonyl)-1H-pyrazol-4-yl)pyrimidin-4-yl)amino)-5-((2-methyltetrahydrofuran-3-yl)ethynyl)pyridin-4-yl)amino)cyclohexyl)methanol]
12 | > 10000 |  | 2.7 | 1.2 | 4.7 | 1 | 2090 |  | 78.1 |  | CC1OCCC1C#Cc1cnc(Nc2ccnc(-c3cnn(S(=O)(=O)C4CC4)c3)n2)cc1NCC1CCC(O)CC1 (stereo not shown) [Example 431, (1 r,4r)-4-(((2-((2-(1-(Cyclopropylsulfonyl)-1H-pyrazol-4-yl)pyrimidin-4-yl)amino)-5-((2-methyltetrahydrofuran-3-yl)ethynyl)pyridin-4-yl)amino)methyl)cyclohexan-1-ol]
13 | > 10000 | 11.4 | 0.6 | 0.4 | 0.7 | 0.3 | 141 | 5.3 | 5.2 | 3.1 | CC1OCCC1C#Cc1cnc(Nc2ccnc(-c3cnn(S(=O)(=O)C4CC4)c3)n2)cc1N1CCC(C)(O)CC1 (stereo not shown) [Example 432, 1-(2-((2-(1-(Cyclopropylsulfonyl)-1H-pyrazol-4-yl)pyrimidin-4-yl)amino)-5-((2-methyltetrahydrofuran-3-yl)ethynyl)pyridin-4-yl)-4-methylpiperidin-4-ol]
14 | 8720 | 7.7 | 0.5 | 0.4 | 0.7 | 0.2 | 90.8 | 4 | 3.2 | 1 | CC1OCCC1C#Cc1cnc(Nc2ccnc(-c3cnn(S(=O)(=O)C4CC4)c3)n2)cc1NC1CCC(O)CC1 (stereo not shown) [Example 433, (1 s,4s)-4-((2-((2-(1-(cyclopropylsulfonyl)-1H-pyrazol-4-yl)pyrimidin-4-yl)amino)-5-((2-methyltetrahydrofuran-3-yl)ethynyl)pyridin-4-yl)amino)cyclohexan-1-ol]
